# Laboratory results published in publication PMC4774911, “Biochemical Screening of Five Protein Kinases from Plasmodium falciparum against 14,000 Cell-Active Compounds” (PLoS ONE, 2016).
# Read-outs that look alike come from different tables or passages of the source.
# Experiments:
# [1] = target: T1, Plasmodium falciparum protein kinase 6 (PK6) (Plasmodium falciparum, UniProt Q8IDW1); test: biochemical; conditions: hits below 1 uM; read-out: PK6 IC50
# T1 construct: 6-Histidine (N); made in house
# T1 sequence (Q8IDW1 1-305): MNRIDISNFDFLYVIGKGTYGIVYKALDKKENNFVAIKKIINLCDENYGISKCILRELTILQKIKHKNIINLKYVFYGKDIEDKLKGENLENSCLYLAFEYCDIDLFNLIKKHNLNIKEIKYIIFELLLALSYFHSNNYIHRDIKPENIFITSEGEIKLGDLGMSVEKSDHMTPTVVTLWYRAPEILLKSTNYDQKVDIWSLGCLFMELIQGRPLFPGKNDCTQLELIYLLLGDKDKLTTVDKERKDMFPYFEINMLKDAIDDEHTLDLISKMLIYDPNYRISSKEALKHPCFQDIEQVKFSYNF
# HepG2 cells = conditions: cited from earlier work
# P. falciparum 3D7 cells = conditions: cited from earlier work
# P. falciparum DD2 = system: P. falciparum DD2; design: method as in ChEMBL; conditions: ref ChEMBL; cited from earlier work
# 3D7 PFLDH [2] = system: 3D7 PFLDH; design: method as in ChEMBL; conditions: ref ChEMBL; cited from earlier work
# [3] = target: T2, Plasmodium falciparum calcium-dependent protein kinase 1 (CDPK1) (Plasmodium falciparum, UniProt P62344); test: CDPK1 Kinase-Glo ATP-consumption screen and dose-response; type: biochemical; conditions: hits below 1 uM; read-out: CDPK1 IC50
# T2 construct: 6-Histidine (N); made in house
# T2 sequence (P62344 whole entry): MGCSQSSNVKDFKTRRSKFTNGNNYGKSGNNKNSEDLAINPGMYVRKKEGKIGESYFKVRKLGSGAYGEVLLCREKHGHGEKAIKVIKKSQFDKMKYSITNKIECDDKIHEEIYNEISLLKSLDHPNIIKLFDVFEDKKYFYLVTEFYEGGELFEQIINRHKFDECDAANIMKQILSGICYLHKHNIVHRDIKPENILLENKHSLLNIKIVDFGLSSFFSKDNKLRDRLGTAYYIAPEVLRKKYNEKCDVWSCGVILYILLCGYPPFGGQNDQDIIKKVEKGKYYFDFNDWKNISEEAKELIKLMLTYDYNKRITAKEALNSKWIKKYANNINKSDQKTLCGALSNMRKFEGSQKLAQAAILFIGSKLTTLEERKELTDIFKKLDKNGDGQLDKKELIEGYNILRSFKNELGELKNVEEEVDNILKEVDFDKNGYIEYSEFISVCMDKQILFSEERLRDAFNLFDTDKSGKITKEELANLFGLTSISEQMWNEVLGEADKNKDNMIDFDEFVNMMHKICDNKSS
# How it was run: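 ATP consumption by recombinant P. falciparum CDPK4 or CDPK1 measured as residual ATP by Kinase-Glo luminescence, with 40 μM Syntide-2 substrate and 90 min incubation stopped with 5 mM EGTA. Single-point screen at 1 μM final, followed by dose-response; no-substrate wells as negative control.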
# [4] = target: T3, Plasmodium falciparum calcium-dependent protein kinase 4 (CDPK4) (Plasmodium falciparum, UniProt Q8IBS5); test: CDPK4 Kinase-Glo ATP-consumption screen and dose-response; type: biochemical; conditions: hits below 1 uM
# T3 construct: 6-Histidine (N); made in house
# T3 sequence (Q8IBS5 1-528): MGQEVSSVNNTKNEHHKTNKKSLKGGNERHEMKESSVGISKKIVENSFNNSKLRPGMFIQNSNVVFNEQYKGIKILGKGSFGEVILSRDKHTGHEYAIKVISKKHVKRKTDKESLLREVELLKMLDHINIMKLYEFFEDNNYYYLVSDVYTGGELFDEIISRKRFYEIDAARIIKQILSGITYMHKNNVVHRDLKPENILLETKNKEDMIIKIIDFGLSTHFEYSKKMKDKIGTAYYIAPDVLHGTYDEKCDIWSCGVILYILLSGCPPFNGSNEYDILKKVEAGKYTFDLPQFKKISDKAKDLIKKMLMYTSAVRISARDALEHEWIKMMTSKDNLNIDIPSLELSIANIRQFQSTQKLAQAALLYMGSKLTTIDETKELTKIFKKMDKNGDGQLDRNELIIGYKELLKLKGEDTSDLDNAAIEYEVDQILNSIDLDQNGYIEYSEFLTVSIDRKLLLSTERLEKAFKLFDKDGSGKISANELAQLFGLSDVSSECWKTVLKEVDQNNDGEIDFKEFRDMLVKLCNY
# Experimental: Biochemical assays were performed in white 384-well plates (Nunc). Liquid transfers were done manually with 8-channel pipets. Compounds were initially tested in a single-point screen (final concentration 1 μM). […] The catalytic activity of each kinase was considered proportional to ATP consumed, as determined from measurements of residual [ATP] with the luciferase-based reagent Kinase-Glo (Promega) following incubation. Luminescence (proportional to residual [ATP]) was measured on the plate readers FLx800 (BioTek Instruments, Winooski, VT, USA) and MicroBeta^2 (PerkinElmer, Waltham, MA, USA). Incubation times were chosen to ensure near-complete ATP depletion in the absence of inhibition, thus maximizing the difference in signal between inhibited and uninhibited wells.
# 40 μM Syntide-2 was used as a substrate; BKI-1 [14] was used as a control inhibitor, while reaction mixtures lacking Syntide-2 were included as an additional negative control. Incubation time was 90 minutes. Reactions were terminated by adding excess EGTA (5 mM), which sequesters Ca^2+ and halts calcium-dependent kinase activity.
# PKG = PKG (Plasmodium falciparum, UniProt Q8I719); test: PKG IC50 (supplementary data file); type: biochemical
# Sequence of PKG (Q8I719 whole entry): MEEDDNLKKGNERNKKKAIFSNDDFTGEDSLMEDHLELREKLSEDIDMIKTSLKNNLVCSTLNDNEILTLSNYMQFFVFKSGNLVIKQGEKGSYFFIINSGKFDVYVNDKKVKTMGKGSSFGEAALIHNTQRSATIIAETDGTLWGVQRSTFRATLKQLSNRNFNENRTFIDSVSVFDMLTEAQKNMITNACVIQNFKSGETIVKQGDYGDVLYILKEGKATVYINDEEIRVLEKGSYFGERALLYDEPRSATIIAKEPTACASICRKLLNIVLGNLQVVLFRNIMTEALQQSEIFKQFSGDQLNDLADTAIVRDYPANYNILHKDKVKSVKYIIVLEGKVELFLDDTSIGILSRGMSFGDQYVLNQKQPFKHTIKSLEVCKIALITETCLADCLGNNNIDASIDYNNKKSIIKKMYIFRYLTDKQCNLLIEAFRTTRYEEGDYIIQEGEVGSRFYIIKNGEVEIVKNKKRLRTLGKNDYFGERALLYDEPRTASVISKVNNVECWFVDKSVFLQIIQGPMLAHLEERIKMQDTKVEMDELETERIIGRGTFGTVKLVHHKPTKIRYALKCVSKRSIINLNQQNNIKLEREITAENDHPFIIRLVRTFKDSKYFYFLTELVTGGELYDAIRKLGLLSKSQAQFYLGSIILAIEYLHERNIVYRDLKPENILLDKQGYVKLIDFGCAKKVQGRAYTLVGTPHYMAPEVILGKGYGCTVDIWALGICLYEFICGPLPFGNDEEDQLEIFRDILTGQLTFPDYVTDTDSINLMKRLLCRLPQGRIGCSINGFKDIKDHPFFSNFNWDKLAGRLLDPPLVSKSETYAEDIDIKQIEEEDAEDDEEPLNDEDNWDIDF
# Excerpt: Supplement pone.0149996.s003.xls, sheet "combined_1_sorted"
# DD2 [5] = system: DD2; design: method as in F.J. Gamo et al., Nature 2010; conditions: downloaded from ChEMBL, ref F.J. Gamo et al., Nature 2010; cited from earlier work
# 3D7 PFLDH [6] = system: 3D7 PFLDH; design: method as in F.J. Gamo et al., Nature 2010; concentration or dose not given beside the values; conditions: downloaded from ChEMBL, ref F.J. Gamo et al., Nature 2010; cited from earlier work
# DD2 [7] = system: DD2; design: method as in downloaded from ChEMBL; conditions: ref downloaded from ChEMBL; cited from earlier work
# 3D7 PFLDH [8] = system: 3D7 PFLDH; design: method as in downloaded from ChEMBL; conditions: ref downloaded from ChEMBL; cited from earlier work
# [9] = HepG2, downloaded from ChEMBL, ref F.J. Gamo et al., Nature 2010
# [10] = 3D7, downloaded from ChEMBL, ref F.J. Gamo et al., Nature 2010
# [11] = HEPG2, ref downloaded from ChEMBL
# [12] = 3D7, ref downloaded from ChEMBL
Compound,IC50 [1],IC50 [3],IC50 [4],IC50 (PKG),"PCT_INHIB_HEPG2 (HepG2 cells; HepG2 cells, ref ChEMBL)","PCT_IHB_3D7 (P. falciparum 3D7 cells; P. falciparum 3D7, ref ChEMBL)","pXC50_3D7 (P. falciparum 3D7 cells; P. falciparum 3D7, ref ChEMBL)",PCT_INHB_DD2 (P. falciparum DD2),PCT_INHIB_3D7_PFLDH (3D7 PFLDH [2]),PCT_INHIB_HEPG2 (HepG2 cells; [9]),PCT_IHB_3D7 (P. falciparum 3D7 cells; [10]),pXC50_3D7 (P. falciparum 3D7 cells; [10]),PCT_INHB_DD2 (DD2 [5]),PCT_INHIB_3D7_PFLDH (3D7 PFLDH [6]),PCT_INHIB_HEPG2 (HepG2 cells; [11]),PCT_IHB_3D7 (P. falciparum 3D7 cells; [12]),pXC50_3D7 (P. falciparum 3D7 cells; [12]),PCT_INHB_DD2 (DD2 [7]),PCT_INHIB_3D7_PFLDH (3D7 PFLDH [8])
Br.CC(=O)Nc1nc(C)c(-c2csc(Nc3ccc(Cl)cc3)n2)s1 [TCMDC-123995],0.095 µM,,,,14,96,6.589,93,0,,,,,,,,,,
CNC(=O)c1ccccc1Nc1nc(Nc2ccc(CCN3CCN(C)CC3)cc2)ncc1Cl.Cl [TCMDC-133800],0.07 µM,0.047 µM,0.361 µM,0.881 µM,,,,,,76%,97%,6.1864,98%,5%,,,,,
Cl.NC[C@H](CC1CCCCC1)NC(=O)c1ccc(-c2ccnc3[nH]ccc23)s1 [TCMDC-134150],,0.492 µM,0.527 µM,1.02 µM,,,,,,,,,,,39,98,6.022,4,5
CN(C(=O)c1cc2c(-c3cncnc3)cccc2[nH]1)c1ccccc1 [TCMDC-134637],,0.271 µM,,,1,92,6.202,99,0,,,,,,,,,,
O=C(Nc1c(F)cccc1F)c1cccc(-c2nn3ccccc3c2-c2ccnc(Nc3cccc(-c4cnco4)c3)n2)c1 [TCMDC-135743],,0.04 µM,0.134 µM,> 10 µM,,,,,,,,,,,96,95,6.443,94,0
CN1CCN(c2ccc(Nc3nccc(-c4c(-c5cccc(NC(=O)c6c(F)cccc6F)c5)nn5ccccc45)n3)cc2)CC1 [TCMDC-135818],,0.035 µM,0.075 µM,0.115 µM,,,,,,,,,,,86,98,6.95,98,0
O=C(Nc1cccc(-c2nn3ccccc3c2-c2ccnc(Nc3ccc(NCCCN4CCOCC4)c(F)c3)n2)c1)c1c(F)cccc1F [TCMDC-135921],0.58 µM,0.038 µM,0.315 µM,5.46 µM,,,,,,,,,,,86,100,6.586,97,0
Cl.NCc1ccc(Nc2nccc(Nc3ccc(-c4ccccc4)cc3)n2)cc1 [TCMDC-136004],,0.375 µM,,,47,100,6.05,98,0,,,,,,,,,,
CCn1c(-c2nonc2N)nc2c(-c3cccc(NC(=O)Nc4ccc(C#N)cc4)c3)ncc(OCCCN)c21.O=C(O)C(F)(F)F [TCMDC-136194],,0.235 µM,0.084 µM,0.595 µM,,,,,,1%,85%,5.821,80%,0%,,,,,
CCn1c(-c2nonc2N)nc2c(-c3cccc(NC(=O)Nc4cccc(C#N)c4)c3)ncc(OCCCN)c21.O=C(O)C(F)(F)F [TCMDC-136195],,0.182 µM,0.17 µM,0.158 µM,,,,,,37%,92%,6.1747,80%,0%,,,,,
CCn1c(-c2nonc2N)nc2c(-c3cccc(NC(=O)NC45CC6CC(CC(C6)C4)C5)c3)ncc(OCCCN)c21.O=C(O)C(F)(F)F [TCMDC-136246],,0.084 µM,0.158 µM,0.089 µM,,,,,,100%,94%,,63%,0%,,,,,
Cc1cc(F)ccc1-c1nc(Nc2ccncc2)c2ccn(C)c2n1 [TCMDC-141231],,0.04 µM,,,9,89,6.027,8,5,,,,,,,,,,
Cc1ccc(Nc2nccc(Nc3ccc4c(c3)nc(Nc3cc(C(C)(C)C)on3)n4C)n2)cc1S(C)(=O)=O [TCMDC-141889],,0.242 µM,,,30,100,6.222,99,0,,,,,,,,,,

# More lines, in order of falling IC50 [3], values ahead:
IC50 [1],IC50 [3],IC50 [4],IC50 (PKG),Compound,"PCT_INHIB_HEPG2 (HepG2 cells; HepG2 cells, ref ChEMBL)","PCT_IHB_3D7 (P. falciparum 3D7 cells; P. falciparum 3D7, ref ChEMBL)","pXC50_3D7 (P. falciparum 3D7 cells; P. falciparum 3D7, ref ChEMBL)",PCT_INHB_DD2 (P. falciparum DD2),PCT_INHIB_3D7_PFLDH (3D7 PFLDH [2]),PCT_INHIB_HEPG2 (HepG2 cells; [9]),PCT_IHB_3D7 (P. falciparum 3D7 cells; [10]),pXC50_3D7 (P. falciparum 3D7 cells; [10]),PCT_INHB_DD2 (DD2 [5]),PCT_INHIB_3D7_PFLDH (3D7 PFLDH [6]),PCT_INHIB_HEPG2 (HepG2 cells; [11]),PCT_IHB_3D7 (P. falciparum 3D7 cells; [12]),pXC50_3D7 (P. falciparum 3D7 cells; [12]),PCT_INHB_DD2 (DD2 [7]),PCT_INHIB_3D7_PFLDH (3D7 PFLDH [8])
,0.029 µM,0.473 µM,0.43 µM,NCC(NC(=O)c1ccc(-c2c[nH]c3ncccc23)s1)c1ccccc1.O=CO (stereo not drawn) [TCMDC-134154],,,,,,,,,,,52,95,6.262,87,0
,0.022 µM,0.307 µM,> 10 µM,O=C(Nc1cccc(-c2nn3ccccc3c2-c2ccnc(Nc3ccc(-c4cc[nH]n4)cc3)n2)c1)c1c(F)cccc1F [TCMDC-135915],,,,,,,,,,,68,98,6.7232,98,5
,0.021 µM,0.09 µM,> 10 µM,CC(c1cccc(Nc2nccc(-c3c(-c4cccc(NC(=O)c5c(F)cccc5F)c4)nn4ccccc34)n2)c1)S(C)(=O)=O (stereo not drawn) [TCMDC-135670],,,,,,,,,,,76,98,7.241,99,0
0.276 µM,0.02 µM,0.052 µM,> 10 µM,CS(=O)(=O)Cc1ccc(Nc2nccc(-c3c(-c4cccc(NC(=O)c5c(F)cccc5F)c4)nn4ccccc34)n2)cc1 [TCMDC-135669],,,,,,,,,,,78,99,6.824,75,0
,0.02 µM,0.051 µM,> 10 µM,NS(=O)(=O)c1cccc(Nc2nccc(-c3c(-c4cccc(NC(=O)c5c(F)cccc5F)c4)nn4ccccc34)n2)c1 [TCMDC-135780],,,,,,,,,,,81,98,7.1329,97,2
,0.02 µM,0.029 µM,> 10 µM,NS(=O)(=O)CCc1cccc(Nc2nccc(-c3c(-c4cccc(NC(=O)c5c(F)cccc5F)c4)nn4ccccc34)n2)c1 [TCMDC-135791],,,,,,,,,,,84,98,7.234,97,3
